Source: patent US8431525B2, “Coelenteramide analogs” (JNC Corporation, priority 2009, dated 2013)

Tests used:
[1] = Fluorescence spectrum and fluorescence quantum yield of CTMD analogs at 750 nM (Example 1); assay type: physicochemical; conditions: for λmax (PB)/nm / λmax (MeOH)/nm: fluorescence emission; for λmax (MeOH)/nm / Fluorescence quantum yield (MeOH): methanol; for λmax (MeOH)/nm / Fluorescence quantum yield (MeOH) / fluorescence spectrum detected: 750 nM; for fluorescence properties compared with known CTMD (c-4) or h-CTMD (c-13): from TABLE 1
Protocol: (§1) The fluorescence quantum yield of each CTMD analog synthesized was determined by the following procedure. The fluorescence spectrum was measured at 25° C. using a spectrofluorometer FP-6500 of JASCO (JASCO Corp., Tokyo). Specifically, the CTMD analog was dissolved in methanol (MeOH) or in 67 mM phosphate buffer (PB) (pH 7.4) at a final concentration of 750 nM using a quartz cell (light path length of 10 mm). Measurement was performed 3 times at the excited wavelength of 330 nm, emission/excitation band width of 3 nm, response of 0.5 second and scanning rate of 100 nm/min. The average was taken as the fluorescence spectrum of the compound. The fluorescence quantum yield was determined after the spectrum was corrected.
Quinine sulfate was used as a standard for determining the fluorescence quantum yield. After quinine sulfate (Wako Pure Chemical Industries) was dissolved in 0.1N sulfuric acid aqueous solution, measurement was performed at the excitation light of 366 nm under the conditions for fluorescence measurements described above. The relative fluorescence quantum yield (fluorescence intensity) of the compound was calculated relative to the quantum yield of quinine sulfate as being 0.55.

[2] = Fluorescence spectra at a final concentration of 30 μM (Example 2); assay type: physicochemical; conditions: excited at 330 nm; for Fluorescence Intensity (MeOH) / λmax (MeOH)/nm: methanol, 30 μM; for Fluorescence Intensity (PB) / λmax (PB)/nm: phosphate buffer pH 7.4, 30 μM
Protocol: as §1
(§2) The fluorescence quantum yield determined in EXAMPLE 1 was estimated by measuring the fluorescence spectra when the final concentration of coelenteramide analogs was 750 nM. When the final concentration was 750 nM as in EXAMPLE 1, any fluorescence spectrum was not detected for c-14, c-31 and c-36 both in methanol and in a phosphate buffer, and not detected for c-25 in a phosphate buffer, in coelenteramide analogs of the present invention (n.d.: not detected). With respect to c-14, c-31, c-25 and c-36 that no fluorescence spectrum was detected, fluorescence spectra were measured under the same conditions as in EXAMPLE 1 except that the final concentration of these coelenteramide analogs was 30 μM. In a similar method, the fluorescence spectrum for C-4 was also measured at a final concentration of 30 μM. The fluorescence spectrum also for […] was measured in 50 mM Tris-HCl (pH 7.6) containing 10 mM CaCl2 under the same conditions as in EXAMPLE 1 except that the final concentration was 18 μM.

[3] = Fluorescence spectrum in 50 mM Tris-HCl (pH 7.6) containing 10 mM CaCl2 at 18 μM; assay type: physicochemical; conditions: 10 mM CaCl2, 18 μM
Protocol: as §2
The fluorescence spectrum of c-38 was measured at 25° C. using a JASCO spectrofluorometer FP-6500 (JASCO Corp., Tokyo). Specifically, c-38 was dissolved in 50 mM Tris-HCl (pH 7.6) containing 10 mM CaCl2 at a final concentration of 18 μM using a quartz cell (light path length of 10 mm). […] The average was taken as the fluorescence spectrum.

[4] = 0.1N H2SO4, ex. 366 nm; value taken as reference; cited from earlier work
[5] = 67 mM phosphate buffer pH 7.4, 750 nM, 25° C., excited at 330 nm
[6] = 25° C., excited at 330 nm, relative to quinine sulfate 0.55
[7] = both in methanol and in a phosphate buffer

SMILES | Fluorescence Intensity (MeOH) [2] | λmax (MeOH)/nm [2] [nm] | Fluorescence Intensity (PB) [2] | λmax (PB)/nm [2] [nm] | fluorescence spectrum detected [1, 7] | fluorescence properties compared with known CTMD (c-4) or h-CTMD (c-13) [1] | melting point | also measured
Oc1ccc(-c2cnc(NC(=S)Cc3ccccc3)c(Cc3ccccc3)n2)cc1 [c-14, 3-Benzyl-5-(4-hydroxyphenyl)-2-(phenylthioacetylamino)pyrazine] | 6.5 | 428.0 | 1.4 | 435.5 | not detected | different fluorescence properties | 195 to 198 °C | 
CC(=O)Nc1ncc(-c2ccc(O)cc2)nc1Cc1ccccc1 [c-25, 2-Acetylamino-3-benzyl-5-(4-hydroxyphenyl)pyrazine] |  |  | 2.0 | 446.0 |  |  |  | fluorescence spectrum detected ([1]; in a phosphate buffer): not detected; λmax (PB)/nm [1, 5]: 446.5 nm; λmax (MeOH)/nm ([1]; 25° C., excited at 330 nm): 425.5 nm; Fluorescence quantum yield (MeOH) [1, 6]: 0.009
CC(=O)Oc1ccc(-c2cnc(NC(=S)Cc3ccccc3)c(Cc3ccccc3)n2)cc1 [c-31, 5-(4-Acetoxyphenyl)-3-benzyl-2-(phenylthioacetylamino)pyrazine] | 5.2 | 422.0 | 1.7 | 413.5 | not detected | different fluorescence properties | 143 to 145 °C | 
Oc1ccc(CC(=S)Nc2ncc(-c3ccc(O)cc3)nc2Cc2ccccc2)cc1 [c-45, 3-Benzyl-5-(4-hydroxyphenyl)-2-[(4-hydroxyphenyl)thioacetylamino]pyrazine] |  |  |  |  |  |  | 101 to 103 °C | fluorescence ability in an aqueous solution [3]: had the fluorescence ability
C=C[C@H]1CN2CC[C@H]1C[C@H]2[C@H](O)c1ccnc2ccc(OC)cc12.C=C[C@H]1CN2CC[C@H]1C[C@H]2[C@H](O)c1ccnc2ccc(OC)cc12.O=S(=O)(O)O [quinine, quinine sulfate, reference compound] |  |  |  |  |  |  |  | λmax of the standard ([1]; 0.1N H2SO4, ex. 366 nm): 451 nm; Fluorescence quantum yield of the standard [4]: 0.55

Now from value to compound, other results behind:

Fluorescence Intensity (MeOH) [2] | λmax (MeOH)/nm [2] [nm] | Fluorescence Intensity (PB) [2] | λmax (PB)/nm [2] [nm] | fluorescence spectrum detected [1, 7] | fluorescence properties compared with known CTMD (c-4) or h-CTMD (c-13) [1] | melting point | SMILES | also measured
80.0 | 428.0 | 1.7 | 444.5 |  |  |  | O=C(Cc1ccc(O)cc1)Nc1ncc(-c2ccc(O)cc2)nc1Cc1ccccc1 [c-4, 3-benzyl-5-(4-hydroxyphenyl)-2-[(4-hydroxyphenyl)acetylamino]pyrazine, reference compound] | Fluorescence quantum yield (PB) ([1]; 67 mM phosphate buffer pH 7.4, 750 nM, 25° C., excited at 330 nm, relative to quinine sulfate 0.55): 0.001; λmax (PB)/nm [1, 5]: 451 nm; λmax (MeOH)/nm ([1]; 25° C., excited at 330 nm): 427.5 nm; Fluorescence quantum yield (MeOH) [1, 6]: 0.012
3.6 | 433.0 | 0.8 | 433.5 | not detected | different fluorescence properties | 176 to 177.5 °C (dec.) | O=[N+]([O-])c1ccc(S(=O)(=O)Nc2ncc(-c3ccc(O)cc3)nc2Cc2ccccc2)cc1 [c-36, 3-Benzyl-5-(4-hydroxyphenyl)-2-[(4-nitrophenyl)sulfonylamino]pyrazine] | 
 |  |  |  |  |  | 194.5 to 196.5 °C | O=S(=O)(Cc1ccc(O)cc1)Nc1ncc(-c2ccc(O)cc2)nc1Cc1ccccc1 [c-38, 3-Benzyl-2-(4-hydroxybenzyl)sulfonylamino-5-(4-hydroxyphenyl)pyrazine] | fluorescence capacity ([3]; excited at 330 nm, FIG. 4): has the fluorescence capacity
